Measurements published in ChEMBL document CHEMBL1201862, “PubChem BioAssay data set” (2004).
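Growth conditions: 96-well plates. Treatment: test compound, 48 hours, 5 concentrations. Analysis: linear interpolation between bracketing concentrations; unreached endpoints set to highest concentration. GI50: concentration for 50% inhibition of growth.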 The source made the active and inactive calls. No stated cut-off is given here; in the data, active = GI50 up to about 1.1 µM and inactive = higher.

What was measured:
Test in all cases: NCI tumour cell line growth inhibition, 48 h
Hs-578T = tested on: Hs-578T
RPMI-8226 = tested on: RPMI-8226
SF-295 = tested on: SF-295
HCT-116 = tested on: HCT-116
HCT-15 = tested on: HCT-15
SF-539 = tested on: SF-539
MCF7 = tested on: MCF7
HOP-62 = tested on: HOP-62
RXF 393 = tested on: RXF 393
LOX IMVI = tested on: LOX IMVI
NCI-H522 = tested on: NCI-H522
ACHN = tested on: ACHN
HOP-92 = tested on: HOP-92
SNB-19 = tested on: SNB-19
UO-31 = tested on: UO-31
K562 = tested on: K562
MDA-N = tested on: MDA-N
HL-60 = tested on: HL-60
U-251 = tested on: U-251
NCI/ADR-RES = tested on: NCI/ADR-RES
OVCAR-5 = tested on: OVCAR-5
786-0 = tested on: 786-0
M14 = tested on: M14
A549 = tested on: A549
UACC-62 = tested on: UACC-62
KM12 = tested on: KM12
MDA-MB-231 = tested on: MDA-MB-231
NCI-H460 = tested on: NCI-H460
DU-145 = tested on: DU-145
OVCAR-8 = tested on: OVCAR-8
MDA-MB-435 = tested on: MDA-MB-435
BT-549 = tested on: BT-549
SF-268 = tested on: SF-268
SW-620 = tested on: SW-620
IGROV-1 = tested on: IGROV-1
SNB-75 = tested on: SNB-75
OVCAR-3 = tested on: OVCAR-3
CCRF-CEM = tested on: CCRF-CEM
UACC-257 = tested on: UACC-257
SK-MEL-2 = tested on: SK-MEL-2
SK-OV-3 = tested on: SK-OV-3
COLO 205 = tested on: COLO 205
SN12C = tested on: SN12C
HCC 2998 = tested on: HCC 2998
HT-29 = tested on: HT-29
PC-3 = tested on: PC-3
TK-10 = tested on: TK-10
NCI-H226 = tested on: NCI-H226
OVCAR-4 = tested on: OVCAR-4
SK-MEL-28 = tested on: SK-MEL-28
EKVX = tested on: EKVX
Malme-3M = tested on: Malme-3M
A498 = tested on: A498
CAKI-1 = tested on: CAKI-1
SK-MEL-5 = tested on: SK-MEL-5
NCI-H23 = tested on: NCI-H23
MOLT-4 = tested on: MOLT-4
T47D = tested on: T47D
SR = tested on: SR

Measured: GI50

O=[N+]([O-])c1cc(Cl)ccc1Sc1ccccc1
inactive: Hs-578T > 100 µM | RPMI-8226 > 100 µM | SF-295 > 100 µM | HCT-116 34.3 µM | SF-539 > 100 µM | MCF7 > 100 µM | HOP-62 > 100 µM | RXF 393 80.2 µM | LOX IMVI > 100 µM | NCI-H522 > 100 µM | ACHN > 100 µM | HOP-92 42.2 µM | SNB-19 > 100 µM | UO-31 23.6 µM | K562 > 100 µM | MDA-N 98.4 µM | HL-60 61.7 µM | U-251 5.89 µM | NCI/ADR-RES > 100 µM | OVCAR-5 > 100 µM | 786-0 > 100 µM | M14 > 100 µM | A549 > 100 µM | UACC-62 > 100 µM | KM12 98.6 µM | MDA-MB-231 > 100 µM | NCI-H460 75 µM | DU-145 > 100 µM | OVCAR-8 > 100 µM | MDA-MB-435 > 100 µM | BT-549 81.5 µM | SF-268 > 100 µM | SW-620 > 100 µM | IGROV-1 > 100 µM | SNB-75 20.8 µM | OVCAR-3 > 100 µM | CCRF-CEM 89.9 µM | UACC-257 > 100 µM | SK-MEL-2 44.8 µM | SK-OV-3 > 100 µM | COLO 205 > 100 µM | SN12C 77.4 µM | HCC 2998 87.9 µM | HT-29 46.8 µM | PC-3 > 100 µM | TK-10 > 100 µM | NCI-H226 34.8 µM | OVCAR-4 > 100 µM | SK-MEL-28 > 100 µM | EKVX > 100 µM | Malme-3M > 100 µM | A498 > 100 µM | CAKI-1 93.8 µM | SK-MEL-5 75.2 µM | NCI-H23 > 100 µM | MOLT-4 56.1 µM | T47D 69.5 µM
72.3 µM: HCT-15

O=Cc1cc2c(cc1-c1c(C=O)ccc3c1OCO3)OCO2
> 10 µM: HCT-15
inactive: Hs-578T > 10 µM | RPMI-8226 > 10 µM | SF-295 > 10 µM | HCT-116 > 10 µM | SF-539 > 10 µM | MCF7 > 10 µM | HOP-62 > 10 µM | LOX IMVI > 10 µM | ACHN > 10 µM | HOP-92 > 10 µM | SNB-19 > 10 µM | K562 > 10 µM | MDA-N > 10 µM | HL-60 > 10 µM | U-251 > 10 µM | NCI/ADR-RES > 10 µM | 786-0 > 10 µM | M14 > 10 µM | A549 > 10 µM | UACC-62 > 10 µM | KM12 > 10 µM | MDA-MB-231 > 10 µM | DU-145 > 10 µM | OVCAR-8 > 10 µM | MDA-MB-435 > 10 µM | BT-549 > 10 µM | SF-268 > 10 µM | SW-620 > 10 µM | IGROV-1 > 10 µM | SNB-75 > 10 µM | OVCAR-3 > 10 µM | CCRF-CEM > 10 µM | UACC-257 > 10 µM | SK-OV-3 > 10 µM | COLO 205 > 10 µM | SN12C > 10 µM | HCC 2998 > 10 µM | HT-29 > 10 µM | PC-3 > 10 µM | TK-10 > 10 µM | SR > 10 µM | OVCAR-4 > 10 µM | SK-MEL-28 > 10 µM | Malme-3M > 10 µM | CAKI-1 > 10 µM | SK-MEL-5 > 10 µM | NCI-H23 > 10 µM | MOLT-4 > 10 µM | T47D > 10 µM
